Among the test systems are KM20L2 colon; SN12C renal; HOP-18 NSCLC; KM12 colon; SF-539 CNS; OVCAR-5 ovarian; RPMI-8226 leukemia; HS 578T breast; SNB-19 CNS; SF-295 CNS.
Holding throughout (assay): NCI anticancer screen, dose series, 48 h

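Where inhibition never reached the appropriate level, the endpoint shown equals the highest concentration tested. Otherwise, values were interpolated linearly from a five-concentration, 48-hour dose response in 96-well plates. Here, GI50 denotes the concentration required for 50% inhibition of growth. TGI: total growth inhibition.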

With `Cc1ccc(NC(=O)CCc2nnc3s/c(=C\C=C\c4ccccc4)c(=O)n23)cc1`, the TGI in the assay on KM20L2 colon, in the assay on SN12C renal, with HOP-18 NSCLC, with KM12 colon, in the assay on SF-539 CNS and with OVCAR-5 ovarian was above 100 µM in each case. For the same molecule, the TGI in the assay on RPMI-8226 leukemia is above 82.1 µM; in the assay with HS 578T breast, above 100 µM; in the assay with SNB-19 CNS, above 100 µM; with SF-295 CNS, above 100 µM.

On to `Cn1cnc(SC2=CC(=O)C=C3S[C@H]4C[C@@]23c2c(c(O)c3c5c2=NCCC=5C=N3)N4)c1CC(N)C(=O)O` (some centres not stated), for which the GI50 in the assay on KM20L2 colon is 2.48 µM; in the assay on SN12C renal, 7.26 µM; in the assay with KM12 colon, 12.7 µM; in the assay with SF-539 CNS, 16.6 µM; with OVCAR-5 ovarian, 19.4 µM; with RPMI-8226 leukemia, 16.3 µM. Further, the results for the GI50 in the assay on HS 578T breast, with SNB-19 CNS and in the assay with SF-295 CNS were 39.7 µM, 19.3 µM and 15.9 µM, respectively. For the same molecule, the TGI with KM20L2 colon stood at 11.6 µM; in the assay with SN12C renal it was 19.1 µM; in the assay with HOP-18 NSCLC it was 30.7 µM; in the assay on KM12 colon, 25.4 µM; in the assay with SF-539 CNS it was 30.8 µM; in the assay with OVCAR-5 ovarian it was 33.6 µM. Further, the TGI with RPMI-8226 leukemia is above 100 µM; in the assay with HS 578T breast it was 96.1 µM; with SNB-19 CNS, 33.5 µM; in the assay on SF-295 CNS, 29.6 µM.

In the case of `CCOC(=O)NC(=O)c1cn(C2CCCCC2)c(=O)n(C)c1=O`, the TGI in the assay with KM20L2 colon, in the assay on SN12C renal, in the assay with HOP-18 NSCLC, with KM12 colon, in the assay with SF-539 CNS and with OVCAR-5 ovarian was above 100 µM in each case. Besides, the TGI with RPMI-8226 leukemia, in the assay with SNB-19 CNS and in the assay on SF-295 CNS was above 100 µM throughout.

In the case of `COc1nc(NC2OC(COC(C)=O)C(OC(C)=O)C(OC(C)=O)C2OC(C)=O)c(N=C(C)C(C)=O)c(=O)n1C` (configuration not stated), the TGI in the assay on KM20L2 colon, with SN12C renal, in the assay on HOP-18 NSCLC, with KM12 colon, with SF-539 CNS and in the assay with OVCAR-5 ovarian was above 100 µM each time. Besides, the TGI in the assay on RPMI-8226 leukemia, in the assay on SNB-19 CNS and in the assay on SF-295 CNS was above 100 µM throughout.

The values are drawn from PubChem BioAssay (NCI).
